Measurements reported in US5371070A, “Bicyclic GnRH antagonists and a method for regulating the secretion of gonadotropins” (The Salk Institute for Biological Studies, priority 1992, dated 1994).
Positions of bridges follow the written chain, without caps; N, C: chain ends. Non-standard residues stand in square brackets, D forms with d. Residues, ends and D or L forms follow the SMILES beside them. Phe(4-Cl) = N[C@@H](Cc1ccc(Cl)cc1)C(=O)O; dPhe(4-Cl) = N[C@H](Cc1ccc(Cl)cc1)C(=O)O; 2Nal = N[C@@H](Cc1ccc2ccccc2c1)C(=O)O; d2Nal = N[C@H](Cc1ccc2ccccc2c1)C(=O)O; d3Pal = N[C@H](Cc1cccnc1)C(=O)O; Orn = NCCC[C@H](N)C(=O)O; Dab = NCC[C@H](N)C(=O)O; Dap = NC[C@H](N)C(=O)O; βAla = NCCC(=O)O; Sar = CNCC(=O)O

Tested on: ovulation in mature female Sprague-Dawley rats
Test: rat anti-ovulation assay (in vivo)
Conditions: for Rats Ovulating: injected about noon on day of proestrus, rats ovulating/rats treated
Source text: These improved bicyclic GnRH antagonists are generally characterized by a substantial ability to suppress the secretion of LH in a standard rat pituitary cell assay when administered together with a concentration of 3 nanomolar GnRH, the details of which assay are set forth in Rivier and Vale, Life Sciences, 23, 869-876 (1978). By substantial ability is meant that, at a concentration of GnRH antagonist to GnRH of about 2/1 or less, the amount of LH secreted is reduced by 50% (IDR50). Moreover, when tested in vivo in the standard rat anti-ovulation assay (Corbin et al. Endocrine Res. Commun., 2, 1 (1975)), these GnRH antagonists show complete blockage of ovulation when administered at about 200 μg or less per kilogram of body weight.
In vivo testing determines effectiveness to prevent ovulation in female rats. In this test, a specified number of mature female Sprague-Dawley rats, e.g. usually five to ten, each having a body weight from about 225 to 250 grams, is injected with a specified microgram dosage of peptide in either saline or bacteriostatic water at about noon on the day of proestrus. Proestrus is the afternoon […]. A separate female rat group is used as a control to which the peptide is not administered. Each of the control female rats ovulates on the evening of proestrus, and the number of the treated rats which ovulate is recorded. The results are set forth in the following Table A, wherein the dosages stated are in micrograms per rat.

SMILES | Rats Ovulating (dosage 10 micrograms per rat) | Rats Ovulating (dosage 2.5 micrograms per rat) | Rats Ovulating (dosage 5 micrograms per rat) | further results
CC(=O)N[C@H](Cc1ccc2ccccc2c1)C(=O)N[C@H](Cc1ccc(Cl)cc1)C(=O)N[C@H](Cc1cccnc1)C(=O)N[C@H]1CC(=O)NC[C@@H](C(N)=O)NC(=O)[C@@H]2CCCN2C(=O)[C@@H]2CCNC(=O)CNC(=O)C[C@H](NC1=O)C(=O)N[C@H](CCCNC(=N)N)C(=O)N[C@@H](CC(C)C)C(=O)N2 [Peptide 3] (Ac-[d2Nal][dPhe(4-Cl)][d3Pal]DD[dR]L[Dab]P[Dap]-NH2; lactam 4-10; linker 5-8 via G) | 4/6 | – | – | Rats Ovulating (dosage 25 micrograms per rat): 0/5
CC(=O)N[C@H](Cc1ccc2ccccc2c1)C(=O)N[C@H](Cc1ccc(Cl)cc1)C(=O)N[C@H](Cc1cccnc1)C(=O)N[C@H]1CC(=O)NC[C@@H](C(N)=O)NC(=O)[C@@H]2CCCN2C(=O)[C@@H]2CCNC(=O)CCNC(=O)C[C@H](NC1=O)C(=O)N[C@H](CCCNC(=N)N)C(=O)N[C@@H](CC(C)C)C(=O)N2 [Peptide 4] (Ac-[d2Nal][dPhe(4-Cl)][d3Pal]DD[dR]L[Dab]P[Dap]-NH2; lactam 4-10; linker 5-8 via βAla) | 4/5 | 9/14 | 7/10 | –
CC(=O)N[C@H](Cc1ccc2ccccc2c1)C(=O)N[C@H](Cc1ccc(Cl)cc1)C(=O)N[C@H](Cc1cccnc1)C(=O)N[C@H]1CC(=O)NC[C@@H](C(N)=O)NC(=O)[C@@H]2CCCN2C(=O)[C@@H]2CCCNC(=O)[C@H](Cc3ccccc3)NC(=O)C[C@H](NC1=O)C(=O)N[C@H](CCCNC(=N)N)C(=O)N[C@@H](CC(C)C)C(=O)N2 [Peptide 10] (Ac-[d2Nal][dPhe(4-Cl)][d3Pal]DD[dR]L[Orn]P[Dap]-NH2; lactam 4-10; linker 5-8 via F) | – | 6/6 | 0/4 | –
CC(=O)N[C@H](Cc1ccc2ccccc2c1)C(=O)N[C@H](Cc1ccc(Cl)cc1)C(=O)N[C@H](Cc1cccnc1)C(=O)N[C@H]1CC(=O)NC[C@@H](C(N)=O)NC(=O)[C@@H]2CCCN2C(=O)[C@@H]2CCNC(=O)[C@H](Cc3ccccc3)NC(=O)CC[C@H](NC1=O)C(=O)N[C@H](CCCNC(=N)N)C(=O)N[C@@H](CC(C)C)C(=O)N2 [Peptide 7] (Ac-[d2Nal][dPhe(4-Cl)][d3Pal]DE[dR]L[Dab]P[Dap]-NH2; lactam 4-10; linker 5-8 via F) | 0/9 | 3/10 | 1/8 | Rats Ovulating (dosage 1.0 micrograms per rat): 4/7
CC(=O)N[C@H](Cc1ccc2ccccc2c1)C(=O)N[C@H](Cc1ccc(Cl)cc1)C(=O)N[C@H](Cc1cccnc1)C(=O)N[C@H]1CC(=O)NC[C@@H](C(N)=O)NC(=O)[C@@H]2CCCN2C(=O)[C@@H]2CCNC(=O)[C@H](CCCNC(=N)N)NC(=O)CC[C@H](NC1=O)C(=O)N[C@H](CCCNC(=N)N)C(=O)N[C@@H](CC(C)C)C(=O)N2 [Peptide 1, (Cyclo 4-10,5,5'-8)[Ac-β-D-2NAL^1, (4Cl)D--Phe^2, D-3PAL^3, Asp^4, Glu^5 (Arg), D--Arg^6, Dbu^8, Dpr^10]-GnRH] (Ac-[d2Nal][dPhe(4-Cl)][d3Pal]DE[dR]L[Dab]P[Dap]-NH2; lactam 4-10; linker 5-8 via R) | – | 0/4 | – | effectiveness to prevent ovulation of female rats (at a very low dosage): significantly effective; Rats Ovulating (dosage 1.0 micrograms per rat): 2/11; dose considered totally effective to prevent ovulation (female rats): about 50 micrograms per Kg of body weight; dose at which it should likely be effective to prevent ovulation (female rats, stated as likely): about 5 μg/Kg
CC(=O)N[C@H](Cc1ccc2ccccc2c1)C(=O)N[C@H](Cc1ccc(Cl)cc1)C(=O)N[C@H](Cc1cccnc1)C(=O)N[C@H]1CC(=O)NC[C@@H](C(N)=O)NC(=O)[C@@H]2CCCN2C(=O)[C@@H]2CCNC(=O)[C@H](Cc3ccc4ccccc4c3)NC(=O)CC[C@H](NC1=O)C(=O)N[C@H](CCCNC(=N)N)C(=O)N[C@@H](CC(C)C)C(=O)N2 [Peptide 11] (Ac-[d2Nal][dPhe(4-Cl)][d3Pal]DE[dR]L[Dab]P[Dap]-NH2; lactam 4-10; linker 5-8 via 2Nal) | 0/4 | – | 1/7 | –
CC(=O)N[C@H](Cc1ccc2ccccc2c1)C(=O)N[C@H](Cc1ccc(Cl)cc1)C(=O)N[C@H](Cc1cccnc1)C(=O)N[C@H]1CC(=O)NC[C@@H](C(N)=O)NC(=O)[C@@H]2CCCN2C(=O)[C@@H]2CCNC(=O)CN(C)C(=O)CC[C@H](NC1=O)C(=O)N[C@H](CCCNC(=N)N)C(=O)N[C@@H](CC(C)C)C(=O)N2 [Peptide 5] (Ac-[d2Nal][dPhe(4-Cl)][d3Pal]DE[dR]L[Dab]P[Dap]-NH2; lactam 4-10; linker 5-8 via Sar) | 4/9 | – | – | –
CC(=O)N[C@H](Cc1ccc2ccccc2c1)C(=O)N[C@H](Cc1ccc(Cl)cc1)C(=O)N[C@H](Cc1cccnc1)C(=O)N[C@H]1CC(=O)NC[C@@H](C(N)=O)NC(=O)[C@@H]2CCCN2C(=O)[C@@H]2CCCNC(=O)[C@H](Cc3ccccc3)NC(=O)CC[C@H](NC1=O)C(=O)N[C@H](CCCNC(=N)N)C(=O)N[C@@H](CC(C)C)C(=O)N2 [Peptide 8] (Ac-[d2Nal][dPhe(4-Cl)][d3Pal]DE[dR]L[Orn]P[Dap]-NH2; lactam 4-10; linker 5-8 via F) | 5/5 | – | – | Rats Ovulating (dosage 25 micrograms per rat): 0/8
CC(=O)N[C@H](Cc1ccc2ccccc2c1)C(=O)N[C@H](Cc1ccc(Cl)cc1)C(=O)N[C@H](Cc1cccnc1)C(=O)N[C@H]1CC(=O)NC[C@@H](C(N)=O)NC(=O)[C@@H]2CCCN2C(=O)[C@@H]2CCNC(=O)CNC(=O)CC[C@H](NC1=O)C(=O)N[C@H](CCCNC(=N)N)C(=O)N[C@@H](CC(C)C)C(=O)N2 [Peptide 2] (Ac-[d2Nal][dPhe(4-Cl)][d3Pal]DE[dR]L[Dab]P[Dap]-NH2; lactam 4-10; linker 5-8 via G) | 1/6 | 6/8 | 2/8 | Rats Ovulating (dosage 25 micrograms per rat): 0/3
CC(=O)N[C@H](Cc1ccc2ccccc2c1)C(=O)N[C@H](Cc1ccc(Cl)cc1)C(=O)N[C@H](Cc1cccnc1)C(=O)N[C@H]1CC(=O)NC[C@@H](C(N)=O)NC(=O)[C@@H]2CCCN2C(=O)[C@@H]2CCNC(=O)[C@H](Cc3c[nH]cn3)NC(=O)CC[C@H](NC1=O)C(=O)N[C@H](CCCNC(=N)N)C(=O)N[C@@H](CC(C)C)C(=O)N2 [Peptide 12] (Ac-[d2Nal][dPhe(4-Cl)][d3Pal]DE[dR]L[Dab]P[Dap]-NH2; lactam 4-10; linker 5-8 via H) | – | 3/8 | – | Rats Ovulating (dosage 1.0 micrograms per rat): 4/4
CC(=O)N[C@H](Cc1ccc2ccccc2c1)C(=O)N[C@H](Cc1ccc(Cl)cc1)C(=O)N[C@H](Cc1cccnc1)C(=O)N[C@H]1CC(=O)NC[C@@H](C(N)=O)NC(=O)[C@@H]2CCCN2C(=O)[C@@H]2CNC(=O)[C@H](Cc3ccccc3)NC(=O)CC[C@H](NC1=O)C(=O)N[C@H](CCCNC(=N)N)C(=O)N[C@@H](CC(C)C)C(=O)N2 [Peptide 6] (Ac-[d2Nal][dPhe(4-Cl)][d3Pal]DE[dR]L[Dap]P[Dap]-NH2; lactam 4-10; linker 5-8 via F) | 6/8 | – | – | –
CC(=O)N[C@H](Cc1ccc2ccccc2c1)C(=O)N[C@H](Cc1ccc(Cl)cc1)C(=O)N[C@H](Cc1cccnc1)C(=O)N[C@H]1CC(=O)NC[C@@H](C(N)=O)NC(=O)[C@@H]2CCCN2C(=O)[C@@H]2CCNC(=O)[C@H](Cc3ccccc3)NC(=O)C[C@H](NC1=O)C(=O)N[C@H](CCCNC(=N)N)C(=O)N[C@@H](CC(C)C)C(=O)N2 [Peptide 9] (Ac-[d2Nal][dPhe(4-Cl)][d3Pal]DD[dR]L[Dab]P[Dap]-NH2; lactam 4-10; linker 5-8 via F) | 0/4 | – | – | –
CC(=O)N[C@H](Cc1ccc2ccccc2c1)C(=O)N[C@H](Cc1ccc(Cl)cc1)C(=O)N[C@H](Cc1cccnc1)C(=O)N[C@H]1CC(=O)NC[C@@H](C(N)=O)NC(=O)[C@@H]2CCCN2C(=O)[C@@H]2CCNC(=O)[C@H](Cc3ccc(Cl)cc3)NC(=O)CC[C@H](NC1=O)C(=O)N[C@H](CCCNC(=N)N)C(=O)N[C@@H](CC(C)C)C(=O)N2 [Peptide 14] (Ac-[d2Nal][dPhe(4-Cl)][d3Pal]DE[dR]L[Dab]P[Dap]-NH2; lactam 4-10; linker 5-8 via Phe(4-Cl)) | – | 3/4 | 0/6 | –
